Experimental data as given in US20260035339A1, “TETRAHYDRONAPHTHALENE DERIVATIVE” (ATRANSEN PHARMA LTD., priority 2022, published 2026).

How the values were obtained:
human LAT1 [1] = target: T1, human LAT1 (Homo sapiens, UniProt Q01650); assay: [14C]L-leucine uptake inhibition test using human-LAT1 stably expressing HEK293 cell line; format: cell-based; design: having full-length cDNA of human LAT1 or LAT2 inserted under a promoter of CMV; expressed in transfected cells; key to Assay Data: degree of [14C]L-leucine uptake inhibition compared with BCH: a test compound having a higher inhibitory effect than BCH is denoted by A; a test compound having the same inhibitory effect as BCH is denoted by B; a test compound having a lower inhibitory effect than BCH is denoted by C; settings: for Assay Data: degree of [14C]L-leucine uptake inhibition compared with BCH: compound (racemic form) and BCH at 0.1, 1.0, 10 μM, 1 μM [14C]L-leucine, 1 minute, Na+-free HBSS; for LAT1 inhibitory effect, compounds singled out (in words): same test as Table 1
T1 sequence (Q01650 whole entry): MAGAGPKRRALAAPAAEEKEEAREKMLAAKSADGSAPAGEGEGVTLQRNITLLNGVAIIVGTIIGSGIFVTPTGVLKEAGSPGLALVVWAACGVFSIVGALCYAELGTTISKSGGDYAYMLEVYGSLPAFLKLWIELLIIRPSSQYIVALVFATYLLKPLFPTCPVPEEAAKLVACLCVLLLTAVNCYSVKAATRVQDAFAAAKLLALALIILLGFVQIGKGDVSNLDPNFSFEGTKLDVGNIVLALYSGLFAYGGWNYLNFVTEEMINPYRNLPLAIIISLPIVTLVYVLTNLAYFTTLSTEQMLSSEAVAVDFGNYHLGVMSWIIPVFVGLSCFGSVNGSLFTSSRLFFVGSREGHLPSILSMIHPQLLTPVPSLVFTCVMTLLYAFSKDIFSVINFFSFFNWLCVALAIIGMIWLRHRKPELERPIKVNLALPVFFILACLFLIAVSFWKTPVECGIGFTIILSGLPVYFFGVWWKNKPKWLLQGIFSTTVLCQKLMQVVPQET
T1 sequence (P08195 102-630 partner): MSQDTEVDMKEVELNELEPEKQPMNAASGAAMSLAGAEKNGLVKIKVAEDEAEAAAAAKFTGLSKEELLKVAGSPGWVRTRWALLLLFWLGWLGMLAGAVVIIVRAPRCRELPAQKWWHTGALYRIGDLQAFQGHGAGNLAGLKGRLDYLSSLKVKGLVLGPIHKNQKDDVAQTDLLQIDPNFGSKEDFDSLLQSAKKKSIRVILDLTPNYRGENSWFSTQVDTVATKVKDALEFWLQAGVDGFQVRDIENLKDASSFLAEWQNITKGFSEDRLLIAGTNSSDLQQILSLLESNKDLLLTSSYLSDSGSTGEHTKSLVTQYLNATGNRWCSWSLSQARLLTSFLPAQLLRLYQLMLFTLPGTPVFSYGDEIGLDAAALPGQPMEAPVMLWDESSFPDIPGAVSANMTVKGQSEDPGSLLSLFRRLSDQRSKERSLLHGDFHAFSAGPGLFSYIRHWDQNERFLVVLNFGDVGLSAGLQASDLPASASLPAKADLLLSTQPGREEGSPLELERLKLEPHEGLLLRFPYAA
Description: HEK293 cells stably expressing human LAT1 and LAT2 were produced, respectively.
A shuttle vector DNA (LAT1: pcDNA3.1(+) -hLAT1, LAT2: pcDNA3.1(+) -hLAT2; expression vector pcDNA3.1 (+) was produced by Invitrogen Corp.) having ampicillin and neomycin resistance markers and having full-length cDNA of human LAT1 or LAT2 inserted under a promoter of CMV (cytomegalovirus) was constructed. This vector was transfected into the HEK293 cells by a method using Lipofectamine (registered trademark) 2000 (Invitrogen Corp.) according to the manufacturer's instructions. Thereafter, stably expressing cell clones of transgene were selected by a limiting dilution method in the presence of 0.9 mg/mL of Geneticin (registered trademark), and among the obtained cell clones, cell clones having a high uptake of [^14C]L-leucine and maintaining stable expression even after 10 passages were obtained. These cells were used for evaluating affinity and selectivity for LAT1 and LAT2.
1-1. It has been confirmed that LAT1 is responsible for L-leucine uptake in the absence of sodium ions in the human-LAT1 stably expressing HEK293 cell line. The human-LAT1 stably expressing HEK293 cell line was seeded in a 24-well plate at 1×10^5 Cell/Well, and the [^14C]L-leucine uptake inhibition test using the compound was performed after 48 hours. After the medium was removed and the cells were washed with Hank's balanced salt solution (Na^+-free HBSS) not containing sodium ions, the cells were cultured in Na^+-free HBSS for 10 minutes. Thereafter, 1 μM of [^14C]L-leucine was taken up in Na^+-free HBSS in the presence of a test compound (0.1, 1.0, 10, 0 μM in each case), which is a racemic form, for 1 minute, and then the cells were washed three times with ice-cooled Na^+-free HBSS. To the well, 500 μL of 1 M NaOH was added, and after 30 minutes, the cells were lysed, and the cell lysate was collected. The amount of [^14C]L-leucine in the cell lysate was determined using a liquid scintillator. The amount of protein in the cell lysate was measured using BCA Assay Kit (Thermofisher Scientific), and the uptake amount of [^14C]L-leucine per 1 mg of protein in the cell per minute was calculated.
The degree of LAT1 inhibition of the compound obtained in the present invention was compared with BCH (BCH, 2-aminobicyclo-(2,2,1)-heptane-2-carboxylic acid), which is an existing LAT1 inhibitor. In the [^14C]L-leucine uptake inhibition test described above, the degrees of inhibition of [^14C]L-leucine uptake inhibition using the compound (racemic form) obtained in Examples and BCH (0.1, 1.0, 10, 0 μM for both) were compared. […] In the table, a test compound having a higher inhibitory effect than BCH is denoted by A, a test compound having the same inhibitory effect as BCH is denoted by B, and a test compound having a lower inhibitory effect than BCH is denoted by C.

[2] = system: Mouse colorectal cancer-derived CT26 cells; assay: Cell proliferation inhibitory effect using mouse colorectal cancer cells (CCK-8 assay); format: cell-based; settings: 72 hours compound treatment, read-out: Evaluation of IC50 (proliferation inhibition rate of 50%)
Experimental: Mouse colorectal cancer-derived CT26 cells were adjusted to […], seeded in a 96-well plate at 1000 cells/well, and cultured in a 10% fetal bovine serum-added RPMI 1640 medium at 5% CO2 and 37° C. The culture medium was changed 24 hours after the start of the culture, and the medium containing the compound of Example was replaced to examine the action of the compound on cell proliferation. As the compound, a concentration of 0.01, 0.03, 0.1, 0.3, 1, 3, 10, or 30 μM was used. As a control, the cells were cultured in a medium containing no compound. The number of cells was evaluated by CCK-8 assay (Cell Counting Kit-8, DOJINDO LABORATORIES) 72 hours after the start of the compound treatment, and the compound concentration (IC50 value) giving a proliferation inhibition rate of 50% as compared with the control was calculated.

[3] = system: Mouse triple negative breast cancer cells 4T1 and mouse colorectal cancer cells CT26; assay: BNCT-enhancing effect using mouse allograft tumor model; format: in vivo, BALB/c mice; settings: neutron rays 5 MW for 30 minutes
Experimental: Mouse triple negative breast cancer cells 4T1 and mouse colorectal cancer cells CT26 were plate-cultured and then transplanted subcutaneously into the lower limbs of BALB/c mice. After 1 week, 400 mg/kg of L-[10B]BPA or a solvent as a control was intravenously administered through the tail vein. In Group 1, the compound of Example 1-45 was administered intravenously at a dose of 25 mg/kg after 1 hour and 1.5 hours from the administration of L-[10B]BPA. In Group 2, the solvent was administered instead of L-[10B]BPA, and after 1 hour and 1.5 hours, the compound of Example 1-45 obtained in the present invention was administered intravenously at a dose of 25 mg/kg. In Group 3, the solvent was administered intravenously instead of the compound of Example 1-45 after 1 hour and 1.5 hours from the administration of L-[10B]BPA. For Groups 1, 2, and 3, the lower limbs were irradiated with neutron rays under anesthesia after 2.5 hours from L-[10B]BPA administration or solvent administration as the control (5 MW for 30 minutes). The tumors were excised after 11 days from irradiation and the volumes thereof were compared.

human LAT1 [4] = target: T1, human LAT1; assay: Leucine uptake persistence inhibitory effect after compound removal in human-LAT1 highly expressing cell line; format: cell-based; settings: 20 μM compound for 30 minutes, removed, uptake measured 30 minutes later
Experimental: The uptake of [^14C]L-leucine remaining after the compound of the present invention was caused to act in advance and removed in the human-LAT1 highly expressing cell line was examined. In the same manner as in the uptake inhibition test, the cell line was seeded in a 24-well plate, and an MEM (Minimum Essential Medium) medium containing 20 μM of the compound (racemic form) was added to the wells and allowed to act for 30 minutes. An MEM medium containing no compound was used as a control. After the compound was caused to act, the cells were washed 3 times with the MEM medium and cultured in the MEM medium for an additional 30 minutes. Thereafter, washing was performed 3 times with Na^+Free-HBSS, and 1 μM of [^14C]L-leucine dissolved in Na^+Free-HBSS was taken up for 1 minute. The cells were washed 3 times with ice-cooled Na^+Free-HBSS, and the amount of [^14C]L-leucine taken up in the cells was determined with a liquid scintillator. In the same manner as in other tests, the amount of protein in the cell fluid was measured, and the uptake amount of [^14C]L-leucine per 1 mg of protein in the cell fluid per minute was determined.

[5] = system: Human breast cancer cells MCF7; assay: BNCT-enhancing effect by L-BPA confinement using cultured cells (colony formation after neutron irradiation); format: cell-based; settings: MCF7 loaded with 100 μM L-[10B]BPA, not treated with Example 1-1; neutron rays 5 MW for 4 minutes
Experimental: Human breast cancer cells MCF7 were plate-cultured in an RPMI medium for 48 hours, then replaced with an RPMI medium containing 100 μM of L-[10B]BPA, and cultured for 15 minutes to allow the L-[10B]BPA to be taken up in the cells. After washing with HBSS, the cells were cultured in an RPMI medium for 60 minutes, and after further washing with HBSS, the cells were peeled off and stored in HBSS at room temperature for 1.5 hours ((−) in FIG. 3A). L-BPA was taken up in the cells, washed with HBSS and then cultured in an RPMI medium containing the compound of Example 1-1 (10 μM) obtained in the present invention for 60 minutes, and after further washing with HBSS, the cells were peeled off and stored in HBSS at room temperature for 1.5 hours ((+) in FIG. 3A). The cells were cultured in an RPMI medium containing no L-[10B]BPA for 15 minutes, and after washing with HBSS, the cells were peeled off and stored in HBSS at room temperature for 1.5 hours ((No BPA Hot control) in FIG. 3A). These three cell samples were irradiated with neutron rays (5 MW for 4 minutes). After irradiation, in order to measure viable cells, the cells were plate-cultured and the number of colonies generated after 2 weeks was measured. The number of viable cells was evaluated as surviving fraction (%) (FIG. 3A).

SMILES	Assay Data: degree of [14C]L-leucine uptake inhibition compared with BCH (human LAT1 [1])	LAT1 inhibitory effect, compounds singled out (in words) (human LAT1 [1])	IC50 [2]	sustained LAT1 inhibitory effect as compared with Example 1-1 (human LAT1 [4])	antitumor effect by neutron irradiation (tumor volume 11 days after irradiation) ([3]; Group 1: 400 mg/kg L-[10B]BPA i.v., then compound 25 mg/kg i.v. after 1 and 1.5 hours)	cell death caused by neutron irradiation, L-[10B]BPA without compound treatment [5]	BNCT effect of L-[10B]BPA without compound (tumor volume 11 days after irradiation) ([3]; Group 3: 400 mg/kg L-[10B]BPA i.v., solvent instead of Example 1-45)
Cl.NC1(C(=O)O)CCc2ccc(Oc3ccccc3-c3ccc(F)c(F)c3F)cc2C1 (stereo not drawn) [Example 1-58, 2-carboxy-7-((2′,3′,4′-trifluoro-[1,1′-biphenyl]-2-yl)oxy)-1,2,3,4-tetrahydronaphthalene-2-aminium chloride]	A	particularly remarkable effects	≤ 900 nM	more remarkable effect	–	–	–
Cl.NC1(C(=O)O)CCc2ccc(Oc3ccccc3-c3ccc(F)cc3F)cc2C1 (stereo not drawn) [Example 1-59, 2-Carboxy-7-((2′,4′-difluoro-[1,1′-biphenyl]-2-yl)oxy)-1,2,3,4-tetrahydronaphthalene-2-aminium chloride]	A	–	≤ 900 nM	more remarkable effect	–	–	–
C=Cc1cccc(-c2ccccc2Oc2ccc3c(c2)CC(N)(C(=O)O)CC3)c1.Cl (stereo not drawn) [Example 1-62, 2-carboxy-7-((3′-vinyl-[1,1′-biphenyl]-2-yl)oxy)-1,2,3,4-tetrahydronaphthalene-2-aminium chloride]	A	–	≤ 900 nM	more remarkable effect	–	–	–
Cl.NC1(C(=O)O)CCc2ccc(Oc3ccccc3-c3cc(F)cc(F)c3F)cc2C1 (stereo not drawn) [Example 1-63, 2-carboxy-7-((2′,3′,5′-trifluoro-[1,1′-biphenyl]-2-yl)oxy)-1,2,3,4-tetrahydronaphthalene-2-aminium chloride]	A	particularly remarkable effects	≤ 900 nM	more remarkable effect	–	–	–
N[C@@H](Cc1ccc(B(O)O)cc1)C(=O)O [L-[10B]BPA, L-boronophenylalanine, reference compound]	–	–	–	–	–	about No BPA Hot control	no BNCT effect was obtained

Second part, led by results:

Assay Data: degree of [14C]L-leucine uptake inhibition compared with BCH (human LAT1 [1])	LAT1 inhibitory effect, compounds singled out (in words) (human LAT1 [1])	IC50 [2]	sustained LAT1 inhibitory effect as compared with Example 1-1 (human LAT1 [4])	SMILES	antitumor effect by neutron irradiation (tumor volume 11 days after irradiation) ([3]; Group 1: 400 mg/kg L-[10B]BPA i.v., then compound 25 mg/kg i.v. after 1 and 1.5 hours)	cell death caused by neutron irradiation, L-[10B]BPA without compound treatment [5]	BNCT effect of L-[10B]BPA without compound (tumor volume 11 days after irradiation) ([3]; Group 3: 400 mg/kg L-[10B]BPA i.v., solvent instead of Example 1-45)
A	particularly remarkable effects	≤ 900 nM	more remarkable effect	Cl.NC1(C(=O)O)CCc2ccc(Oc3ccccc3-c3cccc(F)c3F)cc2C1 (stereo not drawn) [Example 1-45, 2-Carboxy-7-((2′,3′-difluoro-[1,1′-biphenyl]-2-yl)oxy)-1,2,3,4-tetrahydronaphthalene-2-aminium chloride]	large antitumor effect	–	–
A	particularly remarkable effects	≤ 900 nM	more remarkable effect	Cl.NC1(C(=O)O)CCc2ccc(Oc3ccccc3-c3cccc(Cl)c3F)cc2C1 (stereo not drawn) [Example 1-54, 2-carboxy-7-((3′-Chloro-2′-fluoro-[1,1′-biphenyl]-2-yl)oxy)-1,2,3,4-tetrahydronaphthalene-2-aminium chloride]	–	–	–
A	particularly remarkable effects	≤ 900 nM	more remarkable effect	Cc1cccc(-c2ccccc2Oc2ccc3c(c2)CC(N)(C(=O)O)CC3)c1F.Cl (stereo not drawn) [Example 1-55, 2-Carboxy-7-((2′-fluoro-3′-methyl-[1,1′-biphenyl]-2-yl)oxy)-1,2,3,4-tetrahydronaphthalene-2-aminium chloride]	–	–	–
A	particularly remarkable effects	≤ 900 nM	more remarkable effect	Cc1cccc(-c2ccccc2Oc2ccc3c(c2)CC(N)(C(=O)O)CC3)c1Cl.Cl (stereo not drawn) [Example 1-57, 2-carboxy-7-((2′-Chloro-3′-methyl-[1,1′-biphenyl]-2-yl)oxy)-1,2,3,4-tetrahydronaphthalene-2-aminium chloride]	–	–	–
